This passage reports IC50 results from US20230137021A1, “Drug Conjugates of Sugar Derivatives and Uses Thereof as Senolytic Agents” (Rubedo Life Sciences, Inc., priority 2021, published 2023).

Read-outs that look alike come from different tables or passages of the source.

Holding throughout (assay type): cell-based
Assay [1] concerns T47D breast cancer cells, sgNTC. Kind of assay: CRISPR-engineered cancer cell line viability assay (XTT), T47D sgNTC. The note with it: T47D cells with Cas9 and sgNTC, treated for three days, absolute IC50 at Y=0.5 viability, read-out: T47/D sgNTC. As to the method: (§1) T47D and HCC1954 breast cancer cells were cultured in RPMI 1640 medium containing 10% heat inactivated fetal bovine serum. Cell lines were infected with lentiviral construct(s) containing S. pyogenes Cas9 and sgRNA(s) targeting the gene(s) of interest. Infected cells were selected by antibiotic treatment. To assess cell viability in response to compound treatment, cells were seeded into 96-well plates. The next day, serial dilutions covering 10 concentrations of compound were added to the cells. Cells were treated for three days. Cell viability was determined by mitochondrial dehydrogenase activity (XTT assay, Cayman Chemical). To generate dose-response curves, data was fitted to a four-parameter Hill function and the absolute IC50 was determined at Y=0.5 viability.
In general terms: Formazan colour is commonly taken as a measure of viable cells.

For assay [2], the system named is T47D breast cancer cells, sgFUCA1. Nature of the assay: CRISPR-engineered cancer cell line viability assay (XTT), T47D/sgFUCA1. The settings on record: T47D cells with Cas9 and sgFUCA1, treated for three days, absolute IC50 at Y=0.5 viability. The method, then: as §1
For a further assay, the system named is senescent A549 cells. Nature of the assay: Cytotoxicity assay (XTT), senescent A549 cells. The settings on record: A549 senescence induced with 25 μM gemcitabine, incubated with drug for 72 hours, read-out: A549 SEN. The method, then:
(§2) Proliferating and senescent cells were maintained in T175 flasks under the conditions specified below, passaging upon reaching ˜90% confluency. Prior to use in cytotoxicity assays, cells were visually inspected under phase microscopy for contamination and health; if either contamination or significant cell debris was noted, cells were not used. Healthy cells were plated into the middle 60 wells of 96-well plates at a concentration of either 5,000 or 10,000 cells/well (for proliferating and senescent conditions, respectively). The outer 36 wells in each plate contained DPBS to both prevent desiccation of the interior wells and edge effects upon spectrometry readings. After seeding cells into the 96-well plates, they were given 24 hours to attach prior to drug addition. Drug was added in triplicate across 10 different concentrations, spanning roughly 4 Log 10 units. Plates were incubated with drug for 72 hours, at which point the drug-containing media was aspirated and replaced with XTT media. The XTT reagent undergoes an absorbance shift upon reduction through an NAD(P)H-dependent metabolic reaction, and the resulting shift can be used to quantify the viability of the remaining cells after drug treatment. Absorbance readings for each test article were taken once a suitable dynamic range was achieved (generally 0.7-1.4 absorbance units). The resulting data was then background corrected and logarithmized to produce concentration-response curves.
Wild type A549 cells were thawed into DMEM (high glucose, 4 mM L-glutamine, no sodium pyruvate) supplemented with 10% heat-inactivated fetal bovine serum and 1% penicillin-streptomycin antibiotic cocktail. Cells were cultured at 37 C, 5% CO2, and atmospheric oxygen. For senescence induction, only A549s at passage 20 or lower were used. Cells were grown to 60-70% confluency before aspirating media and replacing with fresh media containing 25 μM gemcitabine. Cells were cultured without refreshing media for 72 hours. After treatment, the drug-containing media was aspirated, cells were gently washed with 1×DPBS, and fresh, drug-free media was added to the flask, at which point the cells were allowed to rest for a further 72 hours. Following this rest period, senescence induction was assessed by morphology, SA-β-gal activity, and EdU incorporation. Note: senescence induction with gemcitabine can occasionally result in spontaneous re-entry into the cell cycle in A549s. For this reason, cells should be used in various assays within 14 days of induction to avoid outgrowth of non-senescent populations. In cytotoxicity assays, proliferating cells at passage 20 or younger were included as a comparator. […]

For assay [3], the system named is T47D breast cancer cells, sgGLB sgGALC. Kind of assay: CRISPR-engineered cancer cell line viability assay (XTT), T47D/sgGLB sgGALC. The settings on record: Homo sapiens, 72 h, T47D cells with Cas9 and sgGLB sgGALC, treated for three days, absolute IC50 at Y=0.5 viability. The method, then: as §1
The test system of assay [4] is senescent IMR90 primary lung fibroblasts. Nature of the assay: Cytotoxicity assay (XTT), senescent IMR90 cells. The settings on record: incubated with drug for 72 hours, read-out: IMR90 SEN. The method, then: as §2, with “After seeding cells into the 96-well plates, they were given 24 hours to attach prior to drug addition. Drug was added in triplicate across 10 different concentrations, spanning roughly 4 Log 10 units. Plates were incubated with drug for 72 hours, at which point the drug-containing media was aspirated and replaced with XTT media.” left out, “The resulting data was then background corrected and logarithmized to produce concentration-response curves.” left out
IMR90 primary lung fibroblasts were thawed into DMEM (high glucose, 4 mM L-glutamine, no sodium pyruvate) supplemented with 10% heat-inactivated fetal bovine serum and 1% penicillin-streptomycin antibiotic cocktail. […] Following this rest period, senescence induction was assessed by morphology, SA-β-gal activity, and EdU incorporation. […]

Consider `Cc1[nH]c2ccccc2c1CCNCc1ccc(/C=C/C(=O)NO[C@H]2C[C@H](O)[C@@H](O)[C@H](C)O2)cc1` [Compound 112], for which the IC50 in assay [1] (Homo sapiens, 72 h) was 822 nM; in assay [2] (Homo sapiens, 72 h), 16400 nM.

As for `C[C@@H]1O[C@@H](ONC(=O)c2cnc(N3CCC(CNCc4cn(C)c5ccccc45)CC3)nc2)C[C@H](O)[C@@H]1O` [Compound 108, N-{[(2S,4S,5S,6S)-4,5-dihydroxy-6-methyloxan-2-yl]oxy}-2-[4-({[(1-methyl-1H-indol-3-yl)methyl]amino}methyl)piperidin-1-yl]pyrimidine-5-carboxamide], the IC50 in assay [1] (Homo sapiens, 72 h) was 942 nM; in assay [2] (Homo sapiens, 72 h), 8720 nM.

Take `C/C(=C\C=C\CNCCc1c(C)[nH]c2ccccc12)C/C=C/C(=O)NOC1O[C@H](CO)[C@H](F)[C@H](O)[C@H]1O` (some centres unmarked) [Compound 126]: the IC50 in the assay with senescent A549 cells (Homo sapiens) is more than 30000 nM.

Take `Cc1[nH]c2ccccc2c1CCNCc1ccc(/C=C/C(=O)NO[C@@H]2O[C@H](CO)C[C@H](O)[C@H]2O)cc1` [Compound 124, (E)-N-[(2S,3R,4S,6S)-3,4-dihydroxy-6-(hydroxymethyl)tetrahydropyran-2-yl]oxy-3-[4-[[2-(2-methyl-1H-indol-3-yl)ethylamino]methyl]phenyl]prop-2-enamide]: the IC50 is 9860 nM in assay [1] (Homo sapiens, 72 h); more than 30000 nM in assay [3]; 67000 nM in the assay with senescent A549 cells (Homo sapiens).

`CC(=O)O[C@@H]1[C@H](C)O[C@@H](ONC(=O)c2cnc(N3CCC(CNCc4cn(C)c5ccccc45)CC3)nc2)C[C@@H]1OC(C)=O` [Compound 107, (2S,3R,4S,6S)-3-(acetyloxy)-2-methyl-6-[({2-[4-({[(1-methyl-1H-indol-3-yl)methyl]amino}methyl)piperidin-1-yl]pyrimidin-5-yl}formamido)oxy]oxan-4-yl acetate]: the IC50 was determined as 9.4 nM in assay [1] (Homo sapiens, 72 h) and 1010 nM in assay [2] (Homo sapiens, 72 h).

In the case of `CC(=O)O[C@H]1[C@H](C)O[C@@H](ONC(=O)/C=C/c2ccc(CN(CCc3c(C)[nH]c4ccccc34)C(=O)OCc3oc(=O)oc3C)cc2)C[C@@H]1OC(C)=O` [Compound 105], the IC50 in assay [1] (Homo sapiens, 72 h) was determined as 53.1 nM; in assay [2] (Homo sapiens, 72 h), 2860 nM.

Turning to “(2E)-N-{[(3aR,4S,7aS)-4-methyl-2-oxo-hexahydro-[1,3]dioxolo[4,5-c]pyran-6-yl]oxy}-3-[4-({[2-(2-methyl-1H-indol-3-yl)ethyl]amino}methyl)phenyl]prop-2-enamide [Compound 109]”, the IC50 in assay [1] came out at 330 nM; in assay [2], 1360 nM; in assay [4] (IMR90 senescence induced with 300 nM doxorubicin), 13500 nM; with senescent A549 cells, 2270 nM.

For the compound `Cc1[nH]c2ccccc2c1CCNCc1ccc(/C=C/C(=O)NO[C@@H]2O[C@H](CF)[C@H](O)[C@H](O)[C@H]2O)cc1` [Compound 122, (E)-N-[(2S,3R,4S,5R,6S)-6-(fluoromethyl)-3,4,5-trihydroxy-tetrahydropyran-2-yl]oxy-3-[4-[[2-(2-methyl-1H-indol-3-yl)ethylamino]methyl]phenyl]prop-2-enamide], the IC50 in assay [1] (Homo sapiens, 72 h) is more than 30000 nM; in assay [3], more than 30000 nM.

In the case of `Cc1[nH]c2ccccc2c1CCN(Cc1ccc(/C=C/C(=O)NO[C@H]2C[C@H](O)[C@@H](O)[C@H](C)O2)cc1)C(=O)OCc1oc(=O)oc1C` [Compound 106], in assay [2] (Homo sapiens, 72 h), the IC50 came to 29200 nM.

In the case of `CC(=O)O[C@H]1[C@H](C)O[C@@H](ONC(=O)/C=C/c2ccc(CNCCc3c(C)[nH]c4ccccc34)cc2)C[C@@H]1OC(C)=O` [Compound 111], the IC50 in assay [1] (Homo sapiens, 72 h) stood at 25.3 nM; in assay [2] (Homo sapiens, 72 h) it was 1110 nM; in assay [4] (Homo sapiens, IMR-90, IMR90 senescence induced with 300 nM doxorubicin) it was 3780 nM; in the assay on senescent A549 cells (Homo sapiens), 243 nM.
